Read-outs that look alike come from different tables or passages of the source.
Experiments:
[1] = tested on: nitric oxide production in RAW267.7 macrophages; experiment: Inhibition of nitric oxide production in LPS-activated macrophages (Griess reaction); type: cell-based, murine; details: for inhibition at 3.125 µM: 3.125 μmol/L; for inhibition at 12.5 µM / % inhibition of NO production: 12.5 μmol/L; for inhibition at 3.13 µM: 3.13 μmol/L
Description: (§1) The anti-inflammatory effects combinations of OH-tyrosol or oleuropein and representatives of other groups of natural substances (isoflavones, catechins, phtalides, hydroxylated biphenyls) were evaluated in activated macrophages by determining the inhibition of the synthesis of nitric oxide and/or pro-inflammatory prostaglandins (PG). PGE2 plays a critical role in the inflammation process, while nitric oxide (NO) is a hallmark of inflammation in various chronic inflammatory diseases including various forms of arthritis, gastro-intestinal diseases and metabolic syndrome.
(§2) The anti inflammatory effect of compounds was tested in cellular assays using a murine macrophage indicator cell line, RAW267.7, which was purchased from American Type Culture Collection, (ATCC) and cultured in DMEM according to the protocol provided by ATCC. Cells (˜50,000/well) were seeded into flat-bottomed microtiter plates and cultured for one day. Cells were then starved in complete medium containing 0.25% FCS (D-025). After overnight culture, medium was removed and replaced by 100 μL of D-025 containing the test compounds at twice the final concentration. Subsequently, 100 μL of D-025 containing 2 μg/ml LPS was added (i.e. final LPS concentration of 1 μg/ml) and the cells cultured for 24 hours. Substances were usually tested in a concentration range from 0.2 to 50 μM (or μg/ml in the case of extracts) in two-fold dilution steps. Concentrations of nitrite which was generated from nitric oxide released by cells were determined by the Griess reaction using sodium nitrite as standard (see e.g Imai et al. Biochem Biophys Res Comm, 197, 105 [1993]). Briefly, 50 μl of supernatant was mixed with Griess reagent 1 (25 μL) and Griess reagent 2 (25 μL), centrifuged and the optical density at 540 nm determined. PGE2 secreted into the cell culture medium was determined by EIA obtained from Cayman Chemicals ([…]) and used according to the manufacturer's instructions. IC50 values were calculated using a […] least-square fitting equation [y=A+((B−A)/(1+((C−x)^D))] for best-fit curves (Excel fit software program).
(§3) In a methodological approach that was similar to that described for Example 1, the synergistic effect of lycopene, resveratrol and OH-tyrosol was tested on the inflammatory response. Dose-dependent effects of each substance on the production of nitric oxide or PGE2 in macrophages were determined.

[2] = tested on: PGE2 production in RAW267.7 macrophages; experiment: Inhibition of PGE2 production in LPS-activated macrophages (EIA); type: cell-based, murine
Description: as §1, §2, §3

[3] = Mus musculus, Macrophage, read-out: % inhibition of NO production
[4] = Mus musculus, Macrophage, single substance, RAW267.7, LPS 1 μg/ml, 24 hours, read-out: IC50 Nitric Oxide
[5] = Mus musculus, Macrophage, single substance, RAW267.7, LPS 1 μg/ml, 24 hours, read-out: IC50 PGE2
[6] = Mus musculus, Macrophage, Example 2, read-out: % inhibition of NO production
[7] = Mus musculus, Macrophage, Example 2, read-out: IC50 of pure compound (NO production)
[8] = Mus musculus, Macrophage, Example 2, read-out: IC50 of pure compound (PGE2 production)

Molecule | inhibition at 12.5 µM [1, 3] [%] | IC50 [1, 4] [µM] | IC50 [2, 5] [µM] | IC50 [1, 7] [µM] | IC50 [2, 8] [µM] | further results
C/C=C1/[C@H](O[C@@H]2O[C@H](CO)[C@@H](O)[C@H](O)[C@H]2O)OC=C(C(=O)OC)[C@H]1CC(=O)OCCc1ccc(O)c(O)c1 [Oleuropein, oleuropein] | 8 | 52 ± 5 | 60 ± 10 |  |  | inhibition at 3.125 µM [1, 3]: 2%
Oc1ccc(/C=C/c2cc(O)cc(O)c2)cc1 [Resveratrol, (trans)-resveratrol] |  | 31 ± 2 | 24 ± 2 | 19.3 | 23.4 | inhibition at 3.13 µM [1, 6]: -2%
C=CCc1ccc(O)c(-c2ccc(O)c(CC=C)c2)c1 [Honokiol, 3′,5-Diallyl-2,4′-biphenyldiol] | 66 | 8 ± 1 | 1 ± 0.2 |  |  | 
(−)-epigallocatechin gallate [EGCG] |  |  |  |  |  | % inhibition of NO production [1]: 12%; IC50 ([1]; single substance, RAW267.7, LPS 1 μg/ml, 24 hours, read-out: IC50 Nitric Oxide): 33 ± 2 µM; IC50 ([2]; single substance, RAW267.7, LPS 1 μg/ml, 24 hours, read-out: IC50 PGE2): 35 ± 3 µM
CCC/C=C1\OC(=O)C2=C1CCC=C2 [Ligustilide, ligustilide] | 38 | 15 ± 1 | 10 ± 2 |  |  | inhibition at 3.125 µM [1, 3]: 28%
OCCc1ccc(O)c(O)c1 [OH-Tyrosol, 2-(3,4-dihydroxyphenyl)-ethanol] |  | 28 ± 2 | 24 ± 3 | 24.1 | 22.7 | % inhibition of NO production [1]: 33%; inhibition at 6.25 µM ([1]; Mus musculus, Macrophage, 6.25 μmol/L, read-out: % inhibition of NO production): 7%; inhibition at 3.13 µM [1, 6]: -4%
O=c1c(-c2ccc(O)cc2)coc2cc(O)cc(O)c12 [Genistein, 4′,5,7-trihydroxyisoflavone] |  | 37 ± 2 | 4.6 ± 0.6 |  |  | inhibition at 25 µM ([1]; Mus musculus, Macrophage, 25 μmol/L, read-out: % inhibition of NO production): 40%
CC(C)=CCC/C(C)=C/C=C/C(C)=C/C=C/C(C)=C/C=C/C=C(C)/C=C/C=C(C)/C=C/C=C(\C)CCC=C(C)C [Lycopene (Ly), ψ,ψ carotene] |  |  |  | > 8 | > 8 | inhibition at 0.5 µM ([1]; Mus musculus, Macrophage, Example 2, 0.5 μmol/L, read-out: % inhibition of NO production): 4%; anti-inflammatory effect (production of nitric oxide or PGE2 in macrophages) ([1]; at <8 μmol/L): no anti-inflammatory effect; inhibition at 0.25 µM ([2]; Mus musculus, Macrophage, Example 2, 0.25 μmol/L): -5%
